# According to patent US8278309B2, “Synthetic mimetics of host defense and uses thereof” (priority 2008, dated 2012):
# “Also recorded” adds a separate entry of the source. Counter-ions that a name gives are not always drawn.
# Key:
# [1] = rat, in vivo, iv
# Protocol: Maximum tolerated dose (MTD) determinations were made in ascending/descending dose studies in mice and rats. Compound A was administered by either i.v. bolus injection in the tail vein of mice and rats or by i.v. infusion via catheter in the femoral vein of rats. At each dose, two to three animals were administered compound and clinical signs were recorded over a 4 to 7 day period. Gross necropsy was performed at the conclusion of the study.
# S. aureus (ATCC 13709) = assay: Mouse sepsis model, S. aureus infection; assay type: in vivo; conditions: for protection from mortality: 1 & 7 hr after inoculation, observed 6 days
# Protocol: Sterile saline, vancomycin, or Compound A were administered to separate groups of 8-week old female CD-1 mice (8 mice/group) 1 and 7 hours after i.p. injections of S. aureus (ATCC 13709, 5×10^7 cfu/mL in 5% mucin, 0.5 mL/mouse). Compound A was dissolved in 50%/50% v/v sterile USP purified water/TBS. A suspension of S. aureus was prepared from colonies transferred from the TSA plate to sterile PBS. An aliquot of the stock suspension was added to 5% mucin for a final concentration of about 5×10^7 cfu/mL.
# [2] = In vitro metabolic stability, blood plasma (data not shown); assay type: in vitro ADME
# Protocol: (§1) Pooled plasma samples from human (mixed gender), rat (mixed breed and gender) and dog (mixed breed and gender) were incubated with Compound A (5 μM) at 37° C. for 0 and 60 minutes (duplicate samples). Incubations were terminated by addition of ice-cold precipitation solvent (acetonitrile:glacial acetic acid, 9:1 v/v). Supernatants were diluted with equal volume of 0.1% formic acid and analyzed by HPLC-MS/MS. Plasma stability is reported as % parent compound at 60 minutes relative to amount of parent at 0 minutes.
# S. aureus ATCC27660 = assay: Time-kill study; assay type: cell-based
# Protocol: Time-kill studies of Compound A versus E. coli ATCC25922, E. coli (lab strain) D31, and S. aureus ATCC27660 were determined in a standard protocol by measuring the time it takes to reduce the initial inoculums 3 log units. Three ml of cation-adjusted Mueller-Hinton medium was inoculated with 20 μL of frozen bacterial stock and incubated at 37° C. on a shaker platform (250 rpm) overnight. […] Compound A stock solution was prepared at 10 mg/mL in DMSO. Time points were collected and viable bacteria were counted on MH Agar plates after an 18 hour incubation. […] See, FIG. 1A and FIG. 1B.
# S. aureus (ATCC 13507) = assay: Rat thigh burden model; assay type: in vivo; conditions: for reduction of bacterial load in comparison to inoculated controls / reduction relative to inoculum levels at 1 hour post-infection: 10 mg/kg/dose, 20 mg/kg total dose
# Protocol: For each experiment, female 8-9-week old femoral vein cannulated Crl:CD(SD) rats were made neutropenic with cyclophosphamide (150 mg/kg, i.p.) on days 4 and 1 before i.m. inoculation with S. aureus (ATCC 13507). A suspension of S. aureus was prepared from colonies obtained from an overnight culture, placed in PBS, and adjusted to approximately 10^7 cfu/mL with the aid of a spectrophotometer. Each rat was injected 0.2 mL of inoculum into the thigh muscle of the right hind leg. Thighs were harvested at 25 hours after inoculation and processed to determine cfu/thigh. Compound A was given by i.v. bolus injection into a tail vein or 1-hour i.v. infusion, or 4-hour i.v. infusion via the femoral vein cannulae at different time intervals following inoculation. Separate inoculation control groups were included in each experiment, and vancomycin groups were included as comparative agents in the first and second experiments. Each group, including the controls and comparative agent, consisted of 4 rats.
# MRSA ATCC 33591 = assay: Serial passage resistance, MRSA; assay type: cell-based, S. aureus; conditions: 0.5×MIC, 17 passages
# Protocol: Frozen bacterial stocks (20 μL) of S. aureus ATCC29213 or methicillin-resistant S. aureus (MRSA ATCC 33591) were inoculated into 3 mL cation-adjusted Mueller-Hinton medium and incubated at 37° C. on a shaker platform (250 rpm) overnight. The suspension was diluted to approximately 5×10^5 cfu/mL and inoculated into a polypropylene (Costar) 96-well round bottom plate (90 μL volumes). Compound stock solutions of Compound A and norfloxacin (Sigma Aldrich, St. Louis, Mo.; Catalogue# N9890) were prepared in DMSO and serial two-fold dilutions of compound were made in 0.01% acetic acid, 0.2% bovine serum albumin directly in the wells of the polypropylene plate at 10 μL/well. Final concentrations of Compound A were 50, 25, 12.5, 6.25, 3.13, 1.56, 0.78, 0.39, 0.19, 0.098, 0.049, and 0.024 μg/mL. Final concentration ranges of norfloxacin were 100, 50, 25, 12.5, 6.25, 3.13, 1.56, 0.78, 0.39, 0.19, 0.098, and 0.049 μg/mL. […] All samples were performed in triplicate. Following a 24 hour incubation at 37° C., cell growth was assessed by observing the presence of “acceptable growth”, defined by CLSI as a ≧2 mm button or definite turbidity. The MIC wells were defined as the lowest concentration where acceptable growth was not observed. For serial passage, 50 μL aliquots were taken from 2 of 3 replicate wells at 0.5×MIC and combined into 900 μL of fresh cation-adjusted Mueller-Hinton medium. The OD600 was measured and the cell suspensions were inoculated into polypropylene 96-well round bottom plates (90 μL volumes) at approximately 5×10^5 cfu/mL. Ten μL of compound stock solutions were added previously to the wells to achieve the concentration ranges for each compound described above. All samples were performed in triplicate. The plates were incubated for 24 hours at 37° C. This process was repeated for a total of 17 passages and MIC values were recorded at each passage.
# [3] = tested on: S. aureus and coagulase-negative staphylococci; assay: MICs with Staphylococcus species with defined resistance phenotypes; assay type: cell-based; conditions: for MIC range: in µg/mL
# Protocol: Evaluation of the susceptibility profiles of Compound A against selected isolates was carried out in vitro by broth microdilution methodology using Mueller-Hinton broth medium according to CLSI document M7-A7. CLSI interpretive breakpoints were applied where applicable as directed by CLSI document M100-S17.
# HepG2 = assay: Cytotoxicity colorimetric assay, HepG2; assay type: cell-based, human; conditions: vs S. aureus MIC
# Protocol: (§2) This assay measures the bioreduction of a novel tetrazolium compound to a soluble formazan product by viable cells. HepG2 cells were seeded in 96 well plates at 2×10^4 cells/well in MEM medium with 10% fetal bovine serum (FBS) 24 hours prior to use. NIH/3T3 cells were seeded in 96 well plates at 2×10^4 cells/well in DMEM medium with 10% bovine calf serum (BCS) 24 hours prior to use. […] After incubation, the media was replaced with serum supplemented media and live cells were measured using the Cell Titer 96 Aqueous Non-Proliferation Assay kit (Promega, Madison, Wis.). EC50 values were determined using a four parameter logistic equation: Y=Bottom+(Top-Bottom)/(1+10^((LogEC50−X)*HillSlope)).
# [4] = Cytotoxicity colorimetric assay, HepG2; assay type: cell-based, human; conditions: human, HepG2 cells; one hour in serum-free media
# Protocol: as §2
# [5] = In vitro metabolic stability, blood plasma; assay type: in vitro ADME; conditions: 5 μM, 37° C.
# Protocol: as §1
structure (smiles),measurement,setting,value
"N=C(N)NCCCCC(=O)Nc1cc(C(F)(F)F)cc(NC(=O)c2cc(C(=O)Nc3cc(C(F)(F)F)cc(NC(=O)CCCCNC(=N)N)c3O[C@H]3CCNC3)ncn2)c1O[C@H]1CCNC1 [Compound A, pyrimidine-4,6-dicarboxylic acid bis-{[3-(5-guanidino-pentanoylamino)-2-((R)-pyrrolidin-3-yloxy)-5-trifluoromethyl-phenyl]-amide}tetrahydrochloride]",MTD,[1],>24 mg/kg
same,protection from mortality,S. aureus (ATCC 13709); 2×5 mg/kg i.v.,full protection
same,protection from mortality,S. aureus (ATCC 13709); 2×10 mg/kg i.v.,full protection
same,efficacy relative to vancomycin treatment group,"S. aureus (ATCC 13709); 3, 5, 10 mg/kg/dose i.v.",comparable to the vancomycin treatment group
same,loss of compound in plasma,[2]; cynomolgus monkeys,little to no loss
same,loss of compound in plasma,[2]; rabbits,little to no loss
same,time to reduction of 3 log10 units in the initial inoculum,S. aureus ATCC27660; 2×MIC,5 hours
same,MIC,"S. aureus ATCC27660; Staphylococcus aureus, ATCC27660, MIC used in time-kill study",1 µg/mL
same,re-growth in the cultures,S. aureus ATCC27660; over 72 hours at 1×MIC,No re-growth
same,reduction of bacterial load in comparison to inoculated controls,S. aureus (ATCC 13507); 1 hour i.v. infusions,3.0 logs
same,reduction relative to inoculum levels at 1 hour post-infection,S. aureus (ATCC 13507); 1 hour i.v. infusions,~2.0 logs
same,reduction of bacterial load in comparison to inoculated controls,S. aureus (ATCC 13507); i.v. bolus,3.2 logs
same,reduction relative to inoculum levels at 1 hour post-infection,S. aureus (ATCC 13507); i.v. bolus,approximately 2.2 logs
same,efficacy relative to vancomycin,S. aureus (ATCC 13507); rat thigh burden,comparable to vancomycin
same,change in MIC values on serial passage,MRSA ATCC 33591,did not result in any change; also recorded: no change
same,MIC range,"[3]; DAP-NS OXA-R, 5 isolates",0.5-2
same,MIC range,"[3]; Drug-suscept., 59 isolates",0.25-1
same,MIC range,"[3]; LZD-NS OXA-R, 5 isolates",0.5-1
same,MIC range,"[3]; OXA-R, 69 isolates",0.25-2
same,MIC90,"[3]; Staphylococcus aureus, screen of 150 Staphylococci organisms",0.5 to 2 µg/mL
same,MIC range,"[3]; VRSA/VISA DAP-NS OXA-R, 3 isolates",0.5-1
same,MIC range,"[3]; VRSA/VISA OXA-R, 7 isolates",0.5-1
same,Selectivity (EC50/MIC) HepG2,HepG2,"1,031"
same,EC50 at 1 h,[4],1030 µg/mL
same,Plasma Stability (%),"[5]; Dog (mixed breeds), 60 minutes",100%
same,Plasma Stability (%),"[5]; Human, parent at 60 minutes relative to 0 minutes",96%
same,Plasma Stability (%),"[5]; Rat (mixed breeds), 60 minutes",102%
